Experiments:
[1] = system: methyl cholanthrene A; assay: Methyl cholanthrene A tumor, evaluation by elongation of period of survival (Examples 17 to 20); format: in vivo, female BALB/C mice; details: 100 mg/kg ×9
Method: The aforementioned active compounds, E to H, were severally dissolved in distilled water to obtain aqueous solutions containing the compounds in a fixed concentration of 10 mg/ml. To female BALB/C mice (five weeks old) to which methyl cholanthrene A had been transplanted in a ratio of 1.0 x 10^5 cells per mouse, the aqueous solutions were continuously administered at a dose of 100 mg/kg of body weight for nine days by intraperitoneal injection to determine the mices periods of survival. For comparison, mice to which no aqueous solution was administered and mice to which aminonitrosourea was administered were similarly tested.

[2] = system: methyl cholanthrene A tumor; assay: Methyl cholanthrene A tumor, evaluation by weight of tumor (Examples 13 to 16); format: in vivo, female BALB/C mice; details: for Average weight of tumor / Number of tumorless mice /total number of mice / T/control: 100 mg/kg; for Average weight of tumor / Number of tumorless mice /total number of mice: ip × 9; for T/control: ip×9, tumor weight
Method: Compound E, an alkali metal salt of polymolybdic acid (Example 13), and other compounds (Compounds F to H) mentioned above were severally dissolved in distilled water to obtain aqueous solutions containing the compounds in a fixed concentration of 10 mg/ml. These aqueous solutions were administered to female BALB/C mice (five weeks old) to which methyl cholanthrene A tumor had been transplanted to test the compounds for antineoplastic activity. To be morespecific, the methyl cholanthrene A was transplanted to the mice in a ratio of 1.0 x 10^5 cells per mouse and the aqueous solution was continuously administered (at a dose of 100 mg/kg of body weight) for nine days by intraperitoneal injection. On elapse of 14 days after the stop of the administration, the tumors in the mice were weighed. For comparison, mice to which the aqeuous solution was not administered and the mice to which aminonitrosourea was administered were similarly tested.

SMILES | Average number of days of survival [1] | Number of toxically killed mice/total number of mice [1] | Ratio of prolonging life [1] [%] | Average weight of tumor [2] | Number of tumorless mice /total number of mice [2] | T/control [2] | toxicity ([2]; 100 mg/kg.ip for nine days, judged by increase of body weight, result in words)
O.O.O.O.[K+].[K+].[K+].[K+].[K+].[K+].[O]=[Mo](=[O])([O-])[O][Mo](=[O])(=[O])[O][Mo](=[O])([O-])([O-])[O][Mo](=[O])(=[O])[O][Mo](=[O])([O-])([O-])[O][Mo](=[O])(=[O])[O][Mo](=[O])(=[O])[O-] [Compound E, K6 [Mo7O24] • 4H2O] | 35.5±2.2(8) days | 0/8 | 57.8 | 1281.6±184.2(8) mg | 0/8 | 0.498 | very slight toxicity
O.O.O.O.[Li+].[Li+].[Li+].[Li+].[Li+].[Li+].[O]=[Mo](=[O])([O-])[O][Mo](=[O])(=[O])[O][Mo](=[O])([O-])([O-])[O][Mo](=[O])(=[O])[O][Mo](=[O])([O-])([O-])[O][Mo](=[O])(=[O])[O][Mo](=[O])(=[O])[O-] [Compound G, Li6 [Mo7O24] • 4H2O] | 31.6±5.4(8****) days | 0/8 | 40.4 | 1760±254.6(8) mg | 0/8 | 0.683 | 
O.O.O.O.[Cs+].[Cs+].[Cs+].[Cs+].[Cs+].[Cs+].[O]=[Mo](=[O])([O-])[O][Mo](=[O])(=[O])[O][Mo](=[O])([O-])([O-])[O][Mo](=[O])(=[O])[O][Mo](=[O])([O-])([O-])[O][Mo](=[O])(=[O])[O][Mo](=[O])(=[O])[O-] [Compound H, Cs6 [Mo7O24] • 4H2O] | 32.9±5.5(8) days | 0/8 | 46.2 | 1599.5±340.6(8) mg | 0/8 | 0.621 | 
O.O.O.O.[Na+].[Na+].[Na+].[Na+].[Na+].[Na+].[O]=[Mo](=[O])([O-])[O][Mo](=[O])(=[O])[O][Mo](=[O])([O-])([O-])[O][Mo](=[O])(=[O])[O][Mo](=[O])([O-])([O-])[O][Mo](=[O])(=[O])[O][Mo](=[O])(=[O])[O-] [Compound F, Na6 [Mo7O24] • 4H2O] | 35.0±5.7(8) days | 0/8 | 55.6 | 1592.8±257.6(8) mg | 0/8 | 0.618 | 

Reference: patent EP0412158A1, “ONCOSTATIC DRUG” (priority 1987, dated 1988)
